Drawing on US20250302712A1, “COMPOSITION FOR SKIN MOISTURIZING COMPRISING PHENYLLACTIC ACID” (AMOREPACIFIC CORPORATION, priority 2024, published 2025), this text covers HAS2 gene expression for one compound.

The test concerns HAS2 (Hyaluronan synthase 2). Nature of the test: HAS2 gene expression in blue light irradiated human keratinocytes (HaCaT), Taqman real-time PCR. It is filed as cell-based. The note with it: blue light 410 nm 120 J/cm^2, PLA 50 μM (8.3 ppm). The protocol:
The Lactobacillus plantarum APsulloc 331261 (KCCM11179P) strain used in Experimental Example above was inoculated into a medium containing MRS broth, phenylalanine at a concentration of 40 mM, and calcium carbonate at a concentration of 1%, and the culture medium was cultured for 3 days. The cells were removed by centrifugation, and 1 liter was prepared. An equal amount of ethyl acetate was added to the prepared culture medium and the reaction was performed, and the water layer and the ethyl acetate layer of the culture medium were waited for separation. The separated ethyl acetate layer was heated and distilled, and an appropriate amount of water (about 100 mL) was added to the remaining concentrate to prepare a Lactobacillus culture extract containing phenyllactic acid. […]
In addition, the hyaluronic acid production promotion effect of the culture medium of Lactobacillus strains prepared as shown in Table 1 was compared. The strains Lactobacillus plantarum APsulloc 331261 (KCCM11179P), Lactobacillus plantarum KCTC3108, Lactobacillus acidophilus KCTC3164, and Lactobacillus sakei KTCT3603 were inoculated into MRS broth, and 0.5% of the culture medium static-cultured at 35° C. for 3 days was added, and the gene expression amount of HAS2 (Hyaluronan synthase 2) was measured in the same manner as above.

In the case of `O=C(O)C(O)Cc1ccccc1` (stereo not shown) [PLA, Phenyllactic acid], the HAS2 gene expression result was “significantly improved the decrease in HAS2 gene expression caused by blue light”.
